In US8034314B2, “Photoreactive compound specifically binding to calcium binding proteins” (priority 2004, dated 2011):

What was measured:
CaMKII-dependent GAPDH = CaMKII-dependent GAPDH activity; format: biochemical; details: AzRu 20 μM; mean ± SEM
Pyruvate kinase = biological target: T1, Pyruvate kinase (Oryctolagus cuniculus, UniProt P11974); test: Pyruvate kinase activity; format: biochemical; details: mean ± SEM
T1 construct: purchased Sigma
Description: (§1) Unlabelled ryanodine was obtained from Calbiochem. […] Ruthenium chloride was purchased from Aldrich.

K+ channel (KCKN0) = K+ channel (KCKN0) (Drosophila melanogaster, UniProt Q94526); test: K+ channel (KCKN0) activity; format: biochemical; details: AzRu 20 μM; mean ± SEM
Ca2+-dependent proteins = test: Activities of Ca2+-dependent proteins (summary of Table 1); format: biochemical; details: at ≦20 μM
[1] = system: glucose 6-phosphate dehydrogenase; test: G-6-P dehydrogenase activity; format: biochemical; details: AzRu 100 μM; mean ± SEM
Description: as §1

Alkaline phosphatase = details: AzRu 100 μM; mean ± SEM
Description: Aldolase, alkaline phosphatase, ATP, bovine liver catalase, choline oxidase, CM-cellulose, n-decane, glucose 6-phosphate dehydrogenase, glutamate dehydrogenase, glyceraldehyde 3-phosphate dehydrogenase, Hepes, yeast hexokinase, lactate dehydrogenase, leupeptin, luciferase, mannitol, horseradish peroxidase, PMSF, pyruvate kinase, soybean asolectin, sucrose, Tris and Triton X-100 were purchased from Sigma (St. Louis, Mo., USA). [^45Ca], [^103Ru] and [^3H]ryanodine were purchased from NEN® Life Science Products, Inc. (Boston, USA). Unlabelled ryanodine was obtained from Calbiochem. Sephadex LH-20 was purchased from Amersham Biosciences. n-Octyl-β-D-glucopyranoside (β-OG) was obtained from Bachem AG (Germany). Lauryl-(dimethyl)-amineoxide (LDAO) and ruthenium red (98% pure) were obtained from Fluka (Chemie, GmbH). Ruthenium chloride was purchased from Aldrich. Hydroxyapatite (Bio-Gel HTP) was purchased from Bio-Rad Laboratories (Hercules, Calif.) and Celite from Merck. Synthetic firefly D-luciferin reagent was purchased from Biosynth AG.

Glutamate dehydrogenase = Glutamate dehydrogenase activity; format: biochemical; details: AzRu 100 μM; mean ± SEM
Description: as §1

[2] = system: U-937 human monocytic cell line; test: STS-induced apoptotic cell death of U-937 cells (acridine orange/ethidium bromide staining); format: cell-based; details: for Reduction of STS-activated apoptotic cell death: AzRu 10 μM added 18 h before STS 1.25 μM
Protocol: The U-937 human monocytic cell line was grown under an atmosphere of 95% air and 5% CO2 in RPMI 1640 supplemented with 10% fetal calf serum (FCS), 1 mM L-glutamine, 100 U/ml penicillin, and 100 μg/ml streptomycin. Cells were plated at a density of 5.4×10^4 cells/cm^2 in 24-well plates and then incubated with or without AzRu for 18 hr before exposure to 1.25 μM staurosporine (STS) to induce apoptosis. Cell viability was analyzed 5 and 7 hrs after STS addition by staining with 100 μg/ml acridine orange (AcOr) and 100 μg/ml ethidium bromide (EtBr) in PBS. The cells were then visualized by fluorescence microscopy (Olympus IX51) and images were recorded on an Olympus DP70 camera, using an SWB filter.
AzRu had no effect on the viability of the cells that were not exposed to STS. In FIG. 13 A, U-937 cells were incubated without (a, c) or with AzRu (10 μM) (b,d) for 18 hrs and thereafter were exposed to STS (1.25 μM) (c and d). After five hours the cells were stained with acridine orange and ethidium bromide. Arrows indicate cells in early apoptotic state, represented as degraded nucleus, but with intact cell membrane (stained by acridine orange). Arrowheads indicate a late apoptotic state, as shown by the presence of a degraded nucleus (stained by both acridine orange and ethidium bromide). Scale bar, 20 μm. In FIG. 13 B, quantitative analysis of apoptotic cell death in control cells and cells exposed to AzRu was assessed 5 and 7 hr after their exposure to STS (1.25 by ANOVA and t-test. P<0.001 was considered statistically significant (***). Data are the means±SEM, n=3. In each independent experiment, approximately 200 cells were counted for each treatment.

Lactate dehydrogenase = Lactate dehydrogenase activity; format: biochemical; details: AzRu 100 μM; mean ± SEM
Description: as §1

Catalase = biological target: T2, Catalase (Bos taurus, UniProt P00432); test: Catalase activity; format: biochemical, bovine; details: AzRu 100 μM; mean ± SEM
T2 construct: bovine liver catalase; purchased Sigma; host or cells: bovine liver
Description: as §1

[3] = system: mitochondrial uniporter (Ca2+ uptake in mitochondria); test: Ca2+ uptake/accumulation in isolated mitochondria; format: biochemical, rat
Protocol: Sarcoplasmic reticulum (SR) membranes were prepared from rabbit fast twitch skeletal muscle as described by Saito [Saito et al.: J. Cell Biol. 99 (1984) 875-85]. Mitochondria were isolated from rat liver as described by us previously [Gincel D. et al.: Biochem J. 358 (2001) 147-55]. VDAC was purified by a method developed in our laboratory, using columns of hydroxyapatite and reactive red agarose [Gincel D. et al.: J. Bioenerget. Biomembr. 32 (2000) 571-83].
Ca^2+-accumulation in freshly prepared mitochondria (0.5 mg/ml) was assayed for 1 to 20 minutes at 30° C. in the presence of 225 mM mannitol, 75 mM sucrose, 120 μM CaCl2 (containing 3×10^4 cpm/nmol ^45Ca^2+), 5 mM HEPES/KOH pH 7.0, and 5 mM succinate with 0.1 mM Pi, or 4 mM MgCl2 with 3 mM ATP. The Ca^2+-uptake was terminated by rapid Millipore filtration, followed by a wash with 5 ml of 0.15 M KCl. The Ca^2+-accumulation in SR was determined as described previously [Shoshan-Barmatz V. & Shaineberg A.: Biochim. Biophys. Acta 1065 (1991) 82-8]. Electron transport from succinate to cytochrome c was described in above cited article [Gincel D. et al.: J. Bioenerget. Biomembr. 32 (2000) 571-83].
The effect of AzRu on mitochondrial process of electron transport from the donor succinate to the acceptor cytochrome c was characterized as described above. Although said electron transfer involves several dozens electron transfer carriers, this reaction was not affected by azido-ruthenium of this invention.
The hexavalent RuR and the trivalent Ru360 have been employed in various studies as inhibitors of Ca^2+-dependent reactions. As shown here, even with no photoactivation, AzRu, in contrast to RuR and Ru360, was effective in inhibiting the SR Ca^2+-pump (Table 3). […] This may open the way to inhibit other Ca^2+-dependent activities that are not sensitive to RuR, such as the plasma membrane Ca^2+-ATPase. […] RuR was employed to improve mitochondrial production in ischemic reperfused pig myocardium, was employed in the nervous system to follow neuronal death progress and can act as an anti-oxidant in certain conditions. Considering the potent activity of AzRu in RuR-insensitive reactions (see Table 3), its applications in various biological studies should be explored. Ca^2+ accumulation in SR and mitochondria was assayed as described above in the absence and presence of different concentrations of RuR (0.05-100 μM), Ru360 (0.01-100 μM) or AzRu (0.1-100 μM). The concentration required for 50% inhibition (IC50) was derived from the plot of Ca^2+ accumulation activity or ryanodine binding as a function of the reagent concentration. The results are the mean±SEM of 3 to 5 experiments (Table 3).

Aldolase = biological target: T3, Aldolase (Oryctolagus cuniculus, UniProt P00883); test: Aldolase activity; format: biochemical; details: AzRu 100 μM; mean ± SEM
T3 construct: purchased Sigma
Description: as §1

[4] = system: glyceraldehyde 3-phosphate dehydrogenase; test: GAP dehydrogenase activity; format: biochemical; details: AzRu 100 μM; mean ± SEM
Description: as §1

T1 sequence (P11974 2-531 limits assumed): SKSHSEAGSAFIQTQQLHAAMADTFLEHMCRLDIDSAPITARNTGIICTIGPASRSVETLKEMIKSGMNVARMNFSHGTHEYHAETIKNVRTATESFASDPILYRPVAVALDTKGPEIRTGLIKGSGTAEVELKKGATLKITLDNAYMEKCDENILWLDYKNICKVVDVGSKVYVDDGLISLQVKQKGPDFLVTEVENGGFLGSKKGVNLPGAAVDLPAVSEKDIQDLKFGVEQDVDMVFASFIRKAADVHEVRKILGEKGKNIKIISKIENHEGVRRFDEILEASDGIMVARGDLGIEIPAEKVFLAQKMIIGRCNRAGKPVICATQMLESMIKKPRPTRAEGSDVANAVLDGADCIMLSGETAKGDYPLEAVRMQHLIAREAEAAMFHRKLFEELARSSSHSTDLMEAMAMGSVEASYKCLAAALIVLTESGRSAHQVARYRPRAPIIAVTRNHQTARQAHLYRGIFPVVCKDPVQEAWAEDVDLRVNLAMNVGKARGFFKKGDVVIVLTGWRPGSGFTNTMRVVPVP
T3 sequence (P00883 2-364 limits assumed): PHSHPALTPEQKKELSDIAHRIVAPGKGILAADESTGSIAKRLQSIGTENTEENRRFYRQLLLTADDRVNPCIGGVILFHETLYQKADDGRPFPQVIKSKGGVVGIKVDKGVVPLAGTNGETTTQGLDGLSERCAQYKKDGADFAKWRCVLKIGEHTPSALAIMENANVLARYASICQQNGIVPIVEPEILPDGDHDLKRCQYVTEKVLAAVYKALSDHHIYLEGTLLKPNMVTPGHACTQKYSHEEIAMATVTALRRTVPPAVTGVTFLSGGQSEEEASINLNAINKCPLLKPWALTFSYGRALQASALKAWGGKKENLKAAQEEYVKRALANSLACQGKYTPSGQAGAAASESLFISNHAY
Chain of K+ channel (KCKN0) (Q94526 whole entry): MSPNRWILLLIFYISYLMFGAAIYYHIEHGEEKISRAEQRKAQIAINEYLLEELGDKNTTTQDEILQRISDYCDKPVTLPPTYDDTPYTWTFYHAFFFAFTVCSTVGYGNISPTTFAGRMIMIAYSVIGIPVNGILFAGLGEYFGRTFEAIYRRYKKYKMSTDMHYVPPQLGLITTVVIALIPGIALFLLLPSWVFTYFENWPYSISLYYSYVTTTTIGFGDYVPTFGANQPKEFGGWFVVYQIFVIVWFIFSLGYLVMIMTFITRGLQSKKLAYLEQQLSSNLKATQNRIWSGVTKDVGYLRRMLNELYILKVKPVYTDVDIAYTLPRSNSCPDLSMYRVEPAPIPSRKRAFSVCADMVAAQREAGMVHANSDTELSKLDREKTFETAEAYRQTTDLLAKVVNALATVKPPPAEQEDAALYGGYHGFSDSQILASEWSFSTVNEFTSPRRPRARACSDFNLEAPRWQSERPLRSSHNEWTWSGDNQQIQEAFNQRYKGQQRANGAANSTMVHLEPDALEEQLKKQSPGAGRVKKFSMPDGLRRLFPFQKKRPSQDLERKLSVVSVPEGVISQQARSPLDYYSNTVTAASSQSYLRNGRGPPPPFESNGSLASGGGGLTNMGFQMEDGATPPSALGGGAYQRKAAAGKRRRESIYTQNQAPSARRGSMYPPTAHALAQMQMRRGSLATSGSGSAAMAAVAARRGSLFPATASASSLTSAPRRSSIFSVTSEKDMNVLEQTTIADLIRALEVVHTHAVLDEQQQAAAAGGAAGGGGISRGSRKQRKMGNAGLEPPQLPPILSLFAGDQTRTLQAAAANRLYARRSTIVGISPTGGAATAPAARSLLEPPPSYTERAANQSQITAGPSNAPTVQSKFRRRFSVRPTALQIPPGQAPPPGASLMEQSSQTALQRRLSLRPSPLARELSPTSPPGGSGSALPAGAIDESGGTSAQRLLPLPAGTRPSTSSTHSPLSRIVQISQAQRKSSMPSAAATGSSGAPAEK
T2 sequence (P00432 whole entry): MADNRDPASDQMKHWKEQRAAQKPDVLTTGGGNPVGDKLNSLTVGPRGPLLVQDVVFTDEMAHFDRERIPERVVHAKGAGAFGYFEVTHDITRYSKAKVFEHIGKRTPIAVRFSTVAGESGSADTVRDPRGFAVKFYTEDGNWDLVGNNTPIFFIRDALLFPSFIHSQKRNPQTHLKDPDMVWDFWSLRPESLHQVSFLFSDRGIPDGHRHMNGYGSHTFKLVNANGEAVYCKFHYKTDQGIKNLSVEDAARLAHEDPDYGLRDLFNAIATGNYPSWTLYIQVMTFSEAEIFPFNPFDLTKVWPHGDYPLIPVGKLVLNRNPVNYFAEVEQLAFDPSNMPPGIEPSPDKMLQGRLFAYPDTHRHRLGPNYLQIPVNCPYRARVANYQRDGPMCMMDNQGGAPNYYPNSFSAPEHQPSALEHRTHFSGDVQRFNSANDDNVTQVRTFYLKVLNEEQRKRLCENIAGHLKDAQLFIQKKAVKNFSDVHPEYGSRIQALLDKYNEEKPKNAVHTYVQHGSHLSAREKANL

azido-ruthenium [AzRu]
Activity (% of control), CaMKII-dependent GAPDH (CaMKII-dependent GAPDH): 6 ± 2 % of control
Activity (% of control), Pyruvate kinase (Pyruvate kinase; AzRu 20 μM): 97 ± 7 % of control
Activity (% of control), Pyruvate kinase (Pyruvate kinase; AzRu 100 μM): 81 ± 6 % of control
Activity (% of control), K+ channel (KCKN0) (K+ channel (KCKN0)): 100 ± 0.3 % of control
Inhibition of activities of Ca2+-dependent proteins (Ca2+-dependent proteins): up to 90%
Activity (% of control), G-6-P dehydrogenase [1]: 101 ± 7 % of control
Activity (% of control), Alkaline phosphatase (Alkaline phosphatase): 86 ± 5 % of control
Activity (% of control), Glutamate dehydrogenase (Glutamate dehydrogenase): 101 ± 5 % of control
Reduction of STS-activated apoptotic cell death ([2]; 5 h of exposure to STS): about 75%
Reduction of STS-activated apoptotic cell death ([2]; 7 h of exposure to STS): ~47%
Effect on viability of cells not exposed to STS ([2]; U-937 cells, no STS): no effect
Activity (% of control), Lactate dehydrogenase (Lactate dehydrogenase): 91 ± 4 % of control
Activity (% of control), Catalase (Catalase): 118 ± 8 % of control
Activity (% of control), Ca2+ uptake in mitochondria ([3]; AzRu 20 μM, mean ± SEM): 11 ± 4 % of control
Effect on Ca2+ transport in mitochondria ([3]; isolated mitochondria, FIG. 7): inhibited
IC50 ([3]; no UV, mean ± SEM of 3 to 5 experiments): 1.78 ± 0.12 µM
Activity (% of control), Aldolase (Aldolase): 78 ± 7 % of control
Activity (% of control), GAP dehydrogenase [4]: 102 ± 5 % of control
